Data set [1] can be described thus: circular dichroism (CD) spectroscopy. The format is physicochemical. To be noted: 150 mM NaCl, 5 mM MgCl2, pH 7.5, 5 °C, n=2, free‐thiol (red) samples with 5 mol equivalents TCEP; for MRE222 (mean residue ellipticity at 222 nm): 25 mM Tris, mean ± SD, SD; for % Helicity (estimated): from MRE222 by equation 7, 25 mM Tris. How it is done: Circular dichroism (CD): All samples were prepared in Tris buffer (25 mM Tris, 150 mM NaCl, 5 mM MgCl2, pH 7.5) with the exception of free sulfhydryl peptides, to which Tris(2‐carboxyethyl)phosphine (TCEP; 5 mol eq. relative to the peptide) was added. CD spectra were recorded using an APP Chirascan CD spectropolarimeter and 1 mm pathlength quartz cuvettes. Sample concentrations were typically 30–120 μM, as determined by UV−V absorption based on a tryptophan extinction coefficient of 5600 M^−1 cm^−1 and, for mal‐constrained variants, a maleimide coefficient of 1700 M^−1 cm^−1.[16, 32] […] Spectra were recorded in duplicate at 5 °C, over wavelengths ranging from 290 to 180 nm, with data collected every 1 nm (1 nm s^−1). A background spectrum for CD buffer alone was also recorded and background ellipticity values were subtracted from raw sample ellipticity values (θ) when calculating mean residue ellipticities (MREs) using Equation 6: (6) MRE=(θλ-θ0)xMw/nxlxc
Where [θ]λ is the observed ellipticity at a given wavelength λ in mdeg, [θ]0 is the ellipticity observed for the buffer, Mw =molar weight of the peptide in g mol^−1, n=number of residues; c=sample concentration (mg mL^−1); l=pathlength of the cuvette in mm. Estimates of peptide % helicity were made using Equation 7, [33] (7) %helicity=(MRE222-MREcoil)x100/-425001-3/n
where MRE222 is the MRE value at 222 nm, MREcoil=640‐45T (with T in °C)=415 deg cm^2 dmol^−1 res^−1 at 5 °C, and n is the number of backbone amide bonds including the N‐terminal acetyl.

Data set [2] deals with T1, N‐Myc/Aurora‐A interaction (Aurora‐A122‐403‐C290A/C393A) (Homo sapiens, UniProt O14965, C290A/C393A).
T1 construct: Aurora‐A 122‐403‐C290A/C393A protein was produced as described previously; made in house
T1 sequence (O14965 122-403 C290A/C393A): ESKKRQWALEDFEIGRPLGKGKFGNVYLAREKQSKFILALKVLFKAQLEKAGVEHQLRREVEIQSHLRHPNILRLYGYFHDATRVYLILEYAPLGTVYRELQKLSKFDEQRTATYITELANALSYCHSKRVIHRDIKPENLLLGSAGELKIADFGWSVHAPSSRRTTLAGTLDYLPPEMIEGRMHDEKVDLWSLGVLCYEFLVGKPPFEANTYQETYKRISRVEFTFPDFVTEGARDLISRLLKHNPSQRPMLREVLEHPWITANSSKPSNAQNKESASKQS
In words: competition fluorescence anisotropy (FA) assay against fluorescein labelled N‐Myc61‐89. Also: equilibrated 2 h at room temperature. Type of data set: binding. How it is done:
Fluorescence anisotropy (FA) assays: All assays were performed using 384‐well plates (Greiner Bio‐one, UK). […] All samples were prepared in 25 mM Tris, 150 mM NaCl, 5 mM MgCl2, pH 7.5, and tested in triplicate using an EnVisionTM 2103 MultiLabel plate reader (Perkin Elmer; Waltham, MA, USA). The parameters were set as follows: Excitation wavelength=480 nm (30 nm bandwidth) and emission wavelength=535 nm (30 nm bandwidth). Measured data were processed and analysed as previously described.[31] Specifically, the perpendicular intensity (P) and parallel intensity (S) were subtracted by the control values and used for calculations of intensity and anisotropy using the following Equations 1, 2, 3, 4, and 5: (1) I=2PG+S (2) r=S-PG (3) Lb=r-rmin/λrmax-r+r-rmin (4) [drawing 1] (5) y=rmax+rmin-rmax/1+(x/x0)^p
For competition FA assays, the average anisotropy and the average standard deviation of the values derived from equation (2) were calculated and fit to a sigmoidal logistic model (equation (5)) using Origin 2021. […] Results are reported as IC50±SD, with data points representing the mean of three replicates and error bars indicating the corresponding SD. Where applicable, ΔΔG was determined as follows: ΔΔG=−RT ln (ΔIC50).
Background: Fluorescence polarisation rises when a labelled molecule tumbles more slowly, as on binding a larger partner.

The values that follow come from paper PMC10962542, “Inhibition of Aurora‐A/N‐Myc Protein–Protein Interaction Using Peptidomimetics: Understanding the Role of Peptide Cyclization” (Chembiochem, 2023).

Where two headings read alike, the source gives them in different places. *1 amine or outer side, *2 acyl side, *3 side chain or, on linkers, in order; H or OH if unused. Where a SMILES comes first, the peptide text is derived from it. Bridges are numbered along the chain shown (N, C = ends). Maleimide(3,4-diyl) = O=C1NC(=O)C([*:2])=C1[*:1]

`CSCC[C@H](NC(=O)[C@H](CCC(=O)O)NC(=O)[C@@H](NC(=O)[C@@H](NC(=O)[C@H](Cc1c[nH]c2ccccc12)NC(=O)[C@H](CO)NC(=O)[C@@H]1CCCN1C(=O)[C@@H]1CCCN1C(=O)[C@H](CCC(=O)O)NC(=O)[C@H](CO)NC(=O)[C@H](CO)NC(=O)[C@H](Cc1c[nH]cn1)NC(=O)[C@H](CCC(=O)O)NC(=O)[C@H](C)NC(=O)[C@H](Cc1ccccc1)NC(=O)CNC(=O)[C@H](CCCNC(=N)N)NC(=O)[C@H](CO)NC(=O)[C@@H]1CCCN1C(=O)[C@H](CO)NC(=O)[C@H](CC(C)C)NC(C)=O)C(C)C)[C@@H](C)O)C(=O)N[C@@H](CS)C(=O)N[C@@H](CC(C)C)C(=O)N[C@@H](CCC(=O)O)C(=O)N[C@@H](CC(N)=O)C(=O)N[C@@H](CS)C(=O)N[C@@H](CC(C)C)C(=O)N[C@@H](Cc1c[nH]c2ccccc12)C(=O)NCC(N)=O` [N-Myc 61-89L82C/E86C red] (Ac-LSPSRGFAEHSSEPPSWVTEMCLENCLWG-NH2): in data set [1], the “MRE222 (mean residue ellipticity at 222 nm)” value (from here on “MRE222”) is -2348 ± 49 deg cm^−1 dmol^−1 res^−1 and the “% Helicity (estimated)” value is 7 ± 1%. Moreover, the IC50 (usually the concentration that gives 50% inhibition) in data set [2] (SD) was determined as 120 ± 14 µM.
With `CSCC[C@H](NC(=O)[C@H](CCC(=O)O)NC(=O)[C@@H](NC(=O)[C@@H](NC(=O)[C@H](Cc1c[nH]c2ccccc12)NC(=O)[C@H](CO)NC(=O)[C@@H]1CCCN1C(=O)[C@@H]1CCCN1C(=O)[C@H](CCC(=O)O)NC(=O)[C@H](CO)NC(=O)[C@H](CO)NC(=O)[C@H](Cc1c[nH]cn1)NC(=O)[C@H](CCC(=O)O)NC(=O)[C@H](C)NC(=O)[C@H](Cc1ccccc1)NC(=O)CNC(=O)[C@H](CCCNC(=N)N)NC(=O)[C@H](CO)NC(=O)[C@@H]1CCCN1C(=O)[C@H](CO)NC(=O)[C@H](CC(C)C)NC(C)=O)C(C)C)[C@@H](C)O)C(=O)N[C@@H](CC(C)C)C(=O)N[C@@H](CS)C(=O)N[C@@H](CCC(=O)O)C(=O)N[C@@H](CC(N)=O)C(=O)N[C@@H](CCC(=O)O)C(=O)N[C@@H](CS)C(=O)N[C@@H](Cc1c[nH]c2ccccc12)C(=O)NCC(N)=O` [N-Myc 61-89L83C/L87C red] (Ac-LSPSRGFAEHSSEPPSWVTEMLCENECWG-NH2), in data set [1], the “MRE222” value was -1746 ± 74 deg cm^−1 dmol^−1 res^−1 and the “% Helicity (estimated)” value is reported as 6 ± 1%. The IC50 in data set [2] (SD) was found to be 181 ± 9 µM.
Consider `CSCC[C@H](NC(=O)[C@H](CCC(=O)O)NC(=O)[C@@H](NC(=O)[C@@H](NC(=O)[C@H](Cc1c[nH]c2ccccc12)NC(=O)[C@H](CO)NC(=O)[C@@H]1CCCN1C(=O)[C@@H]1CCCN1C(=O)[C@H](CCC(=O)O)NC(=O)[C@H](CO)NC(=O)[C@H](CO)NC(=O)[C@H](Cc1c[nH]cn1)NC(=O)[C@H](CCC(=O)O)NC(=O)[C@H](C)NC(=O)[C@H](Cc1ccccc1)NC(=O)CNC(=O)[C@H](CCCNC(=N)N)NC(=O)[C@H](CO)NC(=O)[C@@H]1CCCN1C(=O)[C@H](CO)NC(=O)[C@H](CC(C)C)NC(C)=O)C(C)C)[C@@H](C)O)C(=O)N[C@H]1CSSC[C@@H](C(=O)N[C@@H](CC(C)C)C(=O)N[C@@H](Cc2c[nH]c3ccccc23)C(=O)NCC(N)=O)NC(=O)[C@H](CC(N)=O)NC(=O)[C@H](CCC(=O)O)NC(=O)[C@H](CC(C)C)NC1=O` [N-Myc 61-89 L82C/E86C ox] (Ac-LSPSRGFAEHSSEPPSWVTEMCLENCLWG-NH2; disulfide 22-26), for which, in data set [1], the “MRE222” value is recorded as -2630 ± 119 deg cm^−1 dmol^−1 res^−1 and the “% Helicity (estimated)” value is recorded as 8 ± 1%. Further, in data set [2] (SD), the IC50 worked out at 219 ± 23 µM.
`CSCC[C@@H]1NC(=O)[C@H](CCC(=O)O)NC(=O)[C@H]([C@@H](C)O)NC(=O)[C@@H](NC(=O)[C@H](Cc2c[nH]c3ccccc23)NC(=O)[C@H](CO)NC(=O)[C@@H]2CCCN2C(=O)[C@@H]2CCCN2C(=O)[C@H](CCC(=O)O)NC(=O)[C@H](CO)NC(=O)[C@H](CO)NC(=O)[C@H](Cc2c[nH]cn2)NC(=O)[C@H](CCC(=O)O)NC(=O)[C@H](C)NC(=O)[C@H](Cc2ccccc2)NC(=O)CNC(=O)[C@H](CCCNC(=N)N)NC(=O)[C@H](CO)NC(=O)[C@@H]2CCCN2C(=O)[C@H](CO)NC(=O)[C@H](CC(C)C)NC(C)=O)CSSC[C@@H](C(=O)N[C@@H](CC(C)C)C(=O)N[C@@H](CCC(=O)O)C(=O)N[C@@H](CC(N)=O)C(=O)N[C@@H](CCC(=O)O)C(=O)N[C@@H](CC(C)C)C(=O)N[C@@H](Cc2c[nH]c3ccccc23)C(=O)NCC(N)=O)NC1=O` [N-Myc 61-89 V78C/L82C ox] (Ac-LSPSRGFAEHSSEPPSWCTEMCLENELWG-NH2; disulfide 18-22): in data set [1], the “MRE222” value is -2823 ± 48 deg cm^−1 dmol^−1 res^−1 and the “% Helicity (estimated)” value is 8 ± 1%. The same molecule returned an IC50 in data set [2] of at least 500 µM.
“Ac-EPPSWVTEMLLENELWGSPAEEDAF-NH2 [N‐Myc73‐97]”: in data set [1], the “MRE222” value is given as −4886±55 deg cm^−1 dmol^−1 res^−1 and the “% Helicity (estimated)” value is given as 14±1%. Also, the IC50 in data set [2] (SD) stood at 79 ± 4 µM.
As for `CSCC[C@@H]1NC(=O)[C@H](CCC(=O)O)NC(=O)[C@H]([C@@H](C)O)NC(=O)[C@@H](NC(=O)[C@H](Cc2c[nH]c3ccccc23)NC(=O)[C@H](CO)NC(=O)[C@@H]2CCCN2C(=O)[C@@H]2CCCN2C(=O)[C@H](CCC(=O)O)NC(=O)[C@H](CO)NC(=O)[C@H](CO)NC(=O)[C@H](Cc2c[nH]cn2)NC(=O)[C@H](CCC(=O)O)NC(=O)[C@H](C)NC(=O)[C@H](Cc2ccccc2)NC(=O)CNC(=O)[C@H](CCCNC(=N)N)NC(=O)[C@H](CO)NC(=O)[C@@H]2CCCN2C(=O)[C@H](CO)NC(=O)[C@H](CC(C)C)NC(C)=O)CSC2=C(SC[C@@H](C(=O)N[C@@H](CC(C)C)C(=O)N[C@@H](CCC(=O)O)C(=O)N[C@@H](CC(N)=O)C(=O)N[C@@H](CCC(=O)O)C(=O)N[C@@H](CC(C)C)C(=O)N[C@@H](Cc3c[nH]c4ccccc34)C(=O)NCC(N)=O)NC1=O)C(=O)NC2=O` [N-Myc 61-89 V78C/L82C mal] (Ac-LSPSRGFAEHSSEPPSWCTEMCLENELWG-NH2; linker 18-22 via Maleimide(3,4-diyl)), in data set [1], the “MRE222” value was -1767 ± 72 deg cm^−1 dmol^−1 res^−1 and the “% Helicity (estimated)” value was 6 ± 1%. The same molecule registered an IC50 in data set [2] of at least 500 µM.
With `CSCC[C@H](NC(=O)[C@H](CS)NC(=O)[C@@H](NC(=O)[C@@H](NC(=O)[C@H](Cc1c[nH]c2ccccc12)NC(=O)[C@H](CS)NC(=O)[C@@H]1CCCN1C(=O)[C@@H]1CCCN1C(=O)[C@H](CCC(=O)O)NC(=O)[C@H](CO)NC(=O)[C@H](CO)NC(=O)[C@H](Cc1c[nH]cn1)NC(=O)[C@H](CCC(=O)O)NC(=O)[C@H](C)NC(=O)[C@H](Cc1ccccc1)NC(=O)CNC(=O)[C@H](CCCNC(=N)N)NC(=O)[C@H](CO)NC(=O)[C@@H]1CCCN1C(=O)[C@H](CO)NC(=O)[C@H](CC(C)C)NC(C)=O)C(C)C)[C@@H](C)O)C(=O)N[C@@H](CC(C)C)C(=O)N[C@@H](CC(C)C)C(=O)N[C@@H](CCC(=O)O)C(=O)N[C@@H](CC(N)=O)C(=O)N[C@@H](CCC(=O)O)C(=O)N[C@@H](CC(C)C)C(=O)N[C@@H](Cc1c[nH]c2ccccc12)C(=O)NCC(N)=O` [N-Myc 61-89S76C/E80C red] (Ac-LSPSRGFAEHSSEPPCWVTCMLLENELWG-NH2), in data set [1], the “MRE222” value is -2428 ± 25 deg cm^−1 dmol^−1 res^−1 and the “% Helicity (estimated)” value was 7 ± 1%. In data set [2] (SD), the IC50 was 140 ± 18 µM.
